Reference: EP1612281A2, “Methods for assessing patients with acute myeloid leukemia” (Veridex, LLC, priority 2004, dated 2006)

System: patients with relapsed or refractory AML
Experiment: Open label, multicenter, non-comparative phase 2 clinical study of tipifarnib with gene expression profiling
Type: in vivo, human
Experimental: The current study was part of an open label, multicenter, non-comparative phase 2 clinical study in which patients with relapsed or refractory AML (Harousseau et al. (2003)) were treated with tipifarnib at a starting oral dose of 600 mg bid for the first 21 consecutive days of each 28-day cycle. Patients were enrolled into 2 cohorts, those with relapsed AML and those with refractory AML. A total of 252 patients (135 relapsed and 117 refractory) were treated. Eighty patients chose to provide bone marrow samples for RNA microarray analysis, for which a separate informed consent was required. […] Complete remission with incomplete platelet recovery was defined similarly, except for a platelet count less than 100,000/µL sufficient to ensure transfusion independence. Partial remission was defined as at least a 50% decrease in bone marrow blasts with partial neutrophil (>500/µL) and platelet count (>50,000/µL) recovery. Response had to be confirmed at least 4 weeks after first documentation.
The current study was an open label, multicenter, non-comparative Phase 2 study investigating the efficacy and safety of farnesyl transferase inhibition with tipifarnib administered as a single agent, at a starting oral dose of 600 mg b.i.d. for the first 21 days of each 28 day cycle in AML. Subjects were enrolled into two cohorts, those with relapsed AML and those with refractory AML. A total of 252 patients (135 relapsed and 117 refractory) were treated.

Question: With `Cn1cncc1[C@@](N)(c1ccc(Cl)cc1)c1ccc2c(c1)c(-c1cccc(Cl)c1)cc(=O)n2C` [tipifarnib] as the compound, how does the response rate (current patient population (10/54), stable disease patients excluded) read?
Answer: 18%

Question: What about the response rate (entire group of 58 profiled patients (14/58), response includes objective response, hematological response or stable disease) of the same compound?
Answer: 24%

Question: What about the response rate (patients with low expression of AKAP13 (8/26), stable disease patients excluded) of the same compound?
Answer: 31%

Question: What about the response rate (patients with low expression of the AKAP13 gene (13/30), LOOCV, 58 samples) of the same compound?
Answer: 43%

Question: And the response rate (patients with the 3-gene signature (AHR, AKAP13, MINA53) (12/25), LOOCV)?
Answer: 48%
